Experimental findings from patent US11261177B2, “Benzoxazinone derivatives useful as herbicides” (REDAG CROP PROTECTION LTD, priority 2017, dated 2022) are described below.

Holding throughout (type): in vivo
Test [1] relates to Lolium perenne. As to the kind of experiment: Pre-emergence herbicidal assay, 96 cell trays, glasshouse. To be noted: 168 h, second trial (Table 2), Lollium, assessed 7 days after treatment, read-out: % control of plant growth; for pest or weed control at 200 g/ha: 0.2 kg/ha; for pest or weed control at 1000 g/ha: 1 kg/ha; for pest or weed control at 5000 g/ha: 5 kg/ha. In short, it runs like this: (§1)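 Seeds sown 4-6 per cell; test suspension (25% acetone, 75% water/0.01% Tween 20) put on soil at day 1 or sprayed onto two-week-old seedlings. Rates 0.2/1/5 kg/ha, triplicate. Scored as % growth control after 7 days.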

Test [2] deals with Stellaria media—Chickweed. The test is described as above. Conditions: 168 h, second trial (Table 2), assessed 7 days after treatment, read-out: % control of plant growth; for pest or weed control at 200 g/ha: 0.2 kg/ha; for pest or weed control at 1000 g/ha: 1 kg/ha; for pest or weed control at 5000 g/ha: 5 kg/ha. The procedure, abridged:
as §1

In test [3] the test system is 2 weed species (Stellaria media—Chickweed and Lolium perenne). Kind of test: Herbicidal activity screen, summary in words over both weed species. Conditions: pre- and post-emergence, 0.2, 1 and 5 kg/ha. Here is the method:
The compounds were screened at three concentrations (0.2, 1 and 5 kg/ha) against 2 weed species (Stellaria media—Chickweed and Lolium perenne). The seeds were sown in the cells of 96 cell trays (4-6 seeds per cell). For the pre-emergence assay, 75 μL of a suspension of the test compound, at the above doses, was added on top of the soil 1 day after sowing. For the post-emergence assay, the seedlings were sprayed with 200 μL of a suspension of the test compound two weeks after sowing. The formulation used is 25% acetone and 75% water/0.01% Tween 20. Each treatment was replicated three times. The plants were kept in a glasshouse (uncontrolled conditions) and assessed 7 days after treatment. A small number of compounds were tested in a first trial. A larger number of compounds were tested in a second trial. The assessment was based on the % control of plant growth in each cell.

Test [4] has as its system Lolium perenne. As to the kind of experiment: Post-emergence herbicidal assay, 96 cell trays, glasshouse. Conditions: 168 h, second trial (Table 2), Lollium, assessed 7 days after treatment, read-out: % control of plant growth; for pest or weed control at 200 g/ha: 0.2 kg/ha; for pest or weed control at 1000 g/ha: 1 kg/ha; for pest or weed control at 5000 g/ha: 5 kg/ha. The procedure, abridged: as §1

Test [5] deals with Stellaria media—Chickweed. Described as above. Conditions: 168 h, second trial (Table 2), assessed 7 days after treatment, read-out: % control of plant growth; for pest or weed control at 200 g/ha: 0.2 kg/ha; for pest or weed control at 1000 g/ha: 1 kg/ha; for pest or weed control at 5000 g/ha: 5 kg/ha. In short, it runs like this:
as §1

SMILES strings stand for the structures. A value given as a limit tells only on which side of the number the result lay.

As for `C#CCN1C(=O)C2(CC2)Oc2cc(F)c(N3C(=O)CCC3=O)cc21` [Example 28, 1-(7-Fluoro-3-oxo-4-(prop-2-yn-1-yl)-3,4-dihydrospiro[benzo[b][1,4]oxazine-2,1′-cyclopropan]-6-yl)pyrrolidine-2,5-dione], the pest or weed control at 200 g/ha lay within 80 to 100% in the test on Lolium perenne [1], 80 to 100% in test [2], 20 to 80% in the test on Lolium perenne [4] and 80 to 100% in test [5]. Further, the pest or weed control at 1000 g/ha (in the test on Lolium perenne [1]; in test [2]; in the test with Lolium perenne [4]; in test [5]) was 80 to 100% in each case. Moreover, the pest or weed control at 5000 g/ha (in the test on Lolium perenne [1]; in test [2]; with Lolium perenne [4]; in test [5]) was 80 to 100% in each case. The herbicidal activity entry in test [3] is reported as “excellent herbicidal activity against all tested species”.
With `C#CCN1C(=O)C2(CC2)Oc2cc(F)c(N3C(=O)CC(C)CC3=O)cc21` [Example 29, 1-(7-Fluoro-3-oxo-4-(prop-2-yn-1-yl)-3,4-dihydrospiro[benzo[b][1,4]oxazine-2,1′-cyclopropan]-6-yl)-4-methylpiperidine-2,6-dione], the pest or weed control at 200 g/ha in the test on Lolium perenne [1] was 80 to 100%; in test [2], 80 to 100%; in the test with Lolium perenne [4], less than 20%; in test [5], 80 to 100%. Also, the pest or weed control at 1000 g/ha in the test on Lolium perenne [1] was in the range of 80 to 100%; in test [2] it was 80 to 100%; with Lolium perenne [4], 20 to 80%; in test [5] it was 80 to 100%. Further, the pest or weed control at 5000 g/ha is 80 to 100% in the test on Lolium perenne [1], 80 to 100% in test [2], 20 to 80% in the test on Lolium perenne [4] and 80 to 100% in test [5]. The herbicidal activity result in test [3] was “excellent herbicidal activity against all tested species”.
For `C#CCN1C(=O)C2(CC2)Oc2cc(F)c(/N=c3\sc(=O)n4n3CCCC4)cc21` [Example 31, (Z)-7-Fluoro-6-((3-oxotetrahydro-1H,3H-[1,3,4]thiadiazolo[3,4-a]pyridazin-1-ylidene)amino)-4-(prop-2-yn-1-yl)spiro[benzo[b][1,4]oxazine-2,1′-cyclopropan]-3(4H)-one], the pest or weed control at 200 g/ha (in the test on Lolium perenne [1]; in test [2]; with Lolium perenne [4]; in test [5]) was 80 to 100% each time. The pest or weed control at 1000 g/ha (in the test on Lolium perenne [1]; in test [2]; with Lolium perenne [4]; in test [5]) was 80 to 100% in each case. The pest or weed control at 5000 g/ha (in the test with Lolium perenne [1]; in test [2]; with Lolium perenne [4]; in test [5]) was 80 to 100% each time. In test [3], the herbicidal activity entry is recorded as “excellent herbicidal activity against all tested species”.
Consider `C#CCN1C(=O)C2(CC2)Oc2cc(F)c(-n3c(=O)cc(C(F)(F)F)n(C)c3=O)cc21` [Example 34, 3-(7-Fluoro-3-oxo-4-(prop-2-yn-1-yl)-3,4-dihydrospiro[benzo[b][1,4]oxazine-2,1′-cyclopropan]-6-yl)-1-methyl-6-(trifluoromethyl)pyrimidine-2,4(1H,3H)-dione], for which the pest or weed control at 200 g/ha is 20 to 80% in the test with Lolium perenne [1], 80 to 100% in test [2], 20 to 80% in the test on Lolium perenne [4] and 80 to 100% in test [5]. For the same compound, the pest or weed control at 1000 g/ha (with Lolium perenne [1]; in test [2]; with Lolium perenne [4]; in test [5]) was 80 to 100% each time. Besides, the pest or weed control at 5000 g/ha (in the test on Lolium perenne [1]; in test [2]; with Lolium perenne [4]; in test [5]) was 80 to 100% each time. Also, the herbicidal activity result in test [3] is “excellent herbicidal activity against all tested species”.
In the case of `C#CCN1C(=O)C2(CC2)Oc2cc(F)c(-n3c(=O)cc(C(F)(F)F)n(CCC)c3=O)cc21` [Example 43], the pest or weed control at 200 g/ha in the test on Lolium perenne [1] lay in the range of 20 to 80%; in test [2], 20 to 80%; in the test on Lolium perenne [4], 20 to 80%; in test [5], 80 to 100%. The pest or weed control at 1000 g/ha with Lolium perenne [1] lay in the range of 80 to 100%; in test [2], 80 to 100%; with Lolium perenne [4], 20 to 80%; in test [5], 80 to 100%. Further, the pest or weed control at 5000 g/ha (with Lolium perenne [1]; in test [2]; in the test on Lolium perenne [4]; in test [5]) was 80 to 100% throughout. Further, the herbicidal activity result in test [3] is on record as “excellent herbicidal activity against all tested species”.
Consider `C#CCN1C(=O)C2(CC2)Oc2cc(F)c(N3C(=O)C4CCCN4C3=O)cc21` (stereo not shown) [Example 44, 2-(7-Fluoro-3-oxo-4-(prop-2-yn-1-yl)-3,4-dihydrospiro[benzo[b][1,4]oxazine-2,1′-cyclopropan]-6-yl)tetrahydro-1H-pyrrolo[1,2-c]imidazole-1,3(2H)-dione], for which the pest or weed control at 200 g/ha in the test with Lolium perenne [1] is less than 20%; in test [2], 80 to 100%; in the test on Lolium perenne [4], 80 to 100%; in test [5], 80 to 100%. The pest or weed control at 1000 g/ha with Lolium perenne [1] is 20 to 80%; in test [2], 80 to 100%; in the test on Lolium perenne [4], 80 to 100%; in test [5], 80 to 100%. Besides, the pest or weed control at 5000 g/ha (with Lolium perenne [1]; in test [2]; with Lolium perenne [4]; in test [5]) was 80 to 100% in each case. Also, the herbicidal activity result in test [3] is listed as “excellent herbicidal activity against all tested species”.
Regarding `C#CCN1C(=O)C2(CC2)Oc2cc(F)c(N3C(=O)C4CCCCN4C3=O)cc21` (stereo not shown) [Example 47], the pest or weed control at 200 g/ha fell in the range of 20 to 80% in the test with Lolium perenne [1], 80 to 100% in test [2], 80 to 100% in the test with Lolium perenne [4] and 80 to 100% in test [5]. Also, the pest or weed control at 1000 g/ha (with Lolium perenne [1]; in test [2]; with Lolium perenne [4]; in test [5]) was 80 to 100% in each case. Besides, the pest or weed control at 5000 g/ha (in the test on Lolium perenne [1]; in test [2]; with Lolium perenne [4]; in test [5]) was 80 to 100% each time. Moreover, the herbicidal activity result in test [3] is listed as “excellent herbicidal activity against all tested species”.
